Data from PMC10390652 (Inorganic chemistry, 2023).

Assay: Biodistribution in healthy mice
Assay type: in vivo, female Balb/c mice
Conditions: in saline

## [47Sc+3].[Cl-].[Cl-].[Cl-] [free ^47Sc]
n=4
  biodistribution pattern at 1 hour: more widespread uptake within heart, lungs, spleen, kidney, and femur
n=4, listed as [^47Sc]ScCl3
  biodistribution pattern at 1 hour: widespread biodistribution with uptake seen in heart, spleen and kidneys along with the liver, and intestines
